The values below come from ChEMBL document CHEMBL1145570, “Design and synthesis of 2-pyridones as novel inhibitors of the Bacillus anthracis enoyl-ACP reductase” (Bioorg Med Chem Lett, 2008).

≈ marks a conversion by molar mass, not a printed value.

In the test the test system is Bacillus anthracis. The test is described as follows: microbe, parasite or virus in culture. In kind it is functional. Conditions: dANR.
`COc1ccc(Cn2ccc(O)cc2=O)cc1` yielded an MIC of more than 80 µg/mL.

In the case of `O=c1cc(O)ccn1Cc1ccccc1`, the MIC is more than 80 µg/mL.

`CC(=O)Nc1ccc(Cn2ccc(OCc3ccccc3)cc2=O)c(Cl)c1` showed an MIC of more than 80 µg/mL.

Take `C#CCn1ccc(OCc2ccccc2)cc1=O`: the MIC was more than 100 µg/mL.

With `O=c1[nH]c(OCc2ccccc2)ccc1Cc1ccccc1`, the MIC is more than 100 µg/mL.

In turn, `COc1ccc(Oc2ccccc2Cl)c(=O)[nH]1` displayed an MIC of more than 100 µg/mL.

The compound `[O-][n+]1cc(Cl)ccc1Oc1ccc(Cl)cc1Cl` returned an MIC of more than 100 µg/mL.

Compound `O=c1cc(OCc2ccccc2)ccn1Cc1ccccc1Cl` returned an MIC of 16 µg/mL (≈ 49.1 µM).

In turn, `COc1ccc(Cn2ccc(OCCCn3c4ccccc4c4ccccc43)cc2=O)cc1` came in with an MIC of more than 80 µg/mL.

Consider `O=c1cc(OCc2cccc3ccccc23)ccn1Cc1ccccc1Cl`, for which the MIC was more than 80 µg/mL.

The compound `O=c1cc(OCCCn2c3ccccc3c3ccccc32)ccn1Cc1ccccc1` showed an MIC of more than 80 µg/mL.

For `COc1ccc(Oc2ccc(Cl)cc2Cl)c(=O)[nH]1`, the MIC is more than 100 µg/mL.

Consider `Nc1ccc(Cn2ccc(OCc3ccccc3)cc2=O)c(Cl)c1`, for which the MIC is more than 80 µg/mL.

With `O=c1cc(OCc2ccccc2)ccn1Cc1ccc([N+](=O)[O-])cc1Cl`, the MIC is more than 80 µg/mL.

Compound `O=C(O)c1ccc(Cn2ccc(OCc3ccccc3)cc2=O)c(Cl)c1` returned an MIC of more than 80 µg/mL.

As to `NC(=O)c1ccc(Cn2ccc(OCc3ccccc3)cc2=O)c(Cl)c1`, the MIC is more than 80 µg/mL.

As to `O=c1cc(OCc2ccc3ccccc3c2)ccn1Cc1ccccc1Cl`, the MIC is more than 80 µg/mL.

`O=c1cc(OCCCn2nnc3ccccc32)ccn1Cc1ccccc1Cl` yielded an MIC of more than 80 µg/mL.

As for `O=c1cc(OCCCn2ccnc2)ccn1Cc1ccccc1Cl`, the MIC is more than 80 µg/mL.

In the case of `O=c1cc(OCCCn2ccc3ccccc32)ccn1Cc1ccccc1Cl`, the MIC is more than 80 µg/mL.

`O=c1cc(O)ccn1Cc1ccc(O)cc1` came in with an MIC of more than 80 µg/mL.

For `O=c1cc(OCc2ccccc2)ccn1Cc1ccccc1`, the MIC was more than 80 µg/mL.

`N#Cc1ccc(COc2ccn(Cc3ccccc3Cl)c(=O)c2)cc1` showed an MIC of more than 80 µg/mL.

Consider `COc1ccc(Oc2ccccc2Cl)c[n+]1[O-]`, for which the MIC is more than 100 µg/mL.

Compound `CCOC(=O)c1cc(Cn2ccc(OCc3ccccc3)cc2=O)on1` had an MIC of more than 100 µg/mL.

The compound `N#Cc1ccc(Cn2ccc(OCc3ccccc3)cc2=O)c(Cl)c1` registered an MIC of more than 80 µg/mL.

On to `O=c1cc(OCCCn2c3ccccc3c3ccccc32)ccn1Cc1ccccc1Cl`, for which the MIC was more than 80 µg/mL.

`Oc1cc(Cl)ccc1Oc1ccc(Cl)cc1Cl` [TRICLOSAN] came in with an MIC of 3.1 µg/mL (≈ 10.7 µM).
